This passage reports inhibition in vivo and melting point results from patent US6583154B1, “Compounds and methods which modulate feeding behavior and related diseases” (Amgen Inc., priority 1998, dated 2003).

Where a name gives a salt, the structure may show the parent alone.

One series deals with Male BALB-C mice. In words: IP administration of compounds in fasted male BALB-C mice, 2 hr food intake. The settings on record: Mus musculus; male BALB-C mice fasted 18-20 hr; 30 mg/kg (ip) in 2% tween; food given after 30 min, weighed 2 hr later; vs vehicle; read-out: inhibition of feeding (2 hr food intake). It is filed as in vivo. The text has this: Protocol For IP Administration Of Compounds In Male BALB-C Mice.
Male BALB-C mice (20-25 g)were obtained from Charles Rivers (Wilmington, Mass.) and were given at least a one week acclimation period to Amgen's animal care facilities. Animals were housed 10/cage and were provided ad libitum food and water. For testing, mice were fasted for 18-20 hr (overnight) prior to the start of the experiment. On the day of the experiment, mice were removed from group housing and placed into individual cages (without food). Test compounds or vehicle was then administered via the intraperitoneal (i.p.) route of administration. Test compounds were suspended in a 2% tween solution; the 2% tween solution was used as the vehicle treatment (control group). Group sizes for each treatment were 6-8 animals. After 30 min, premeasured food was placed into the cages. Two hours later, the food was weighed again. The difference between 2 hr weight and the premeasured weight was taken as 2 hr food intake.

Another series concerns Long-Evans male rats. As to the kind of experiment: IP administration of compounds in fasted Long-Evans male rats, 2 hr food intake. It is filed as in vivo. The settings on record: Rattus norvegicus; male Long Evans rats fasted 18-20 hr; 30 mg/kg (ip) in 2% tween; food given after 30 min, weighed 2 hr later; vs vehicle; read-out: inhibition of feeding (2 hr food intake). The protocol: Protocol for IP Administration of Compounds in Fasted Long-Evans Male Rats
Male Long Evans rats (85-100 g)were obtained from Harlan (Indianapolis, Ind.) and were given at least a one week acclimation period to Ambients animal care facilities. Animals were individually housed and were provided ad libitum food and water. For testing, rats were fasted for 18-20 hr (overnight) prior to the start of the experiment. On the test day, test compounds or vehicle was administered via the intraperitoneal (i.p.) route of administration. Test compounds were suspended in a 2% tween solution; the 2% tween solution was used as the vehicle treatment (control group). Group sizes for each treatment were 6-8 animals. After 30 min, premeasured food was placed into the cages. Two hours later, the food was weighed again. The difference between 2 hr weight and the premeasured weight was taken as 2 hr food intake.

With `Cc1nc(N2CCCC2)c2[nH]c(-c3ccccc3)cc2n1` [Example 9, 2-Methyl-6-phenyl-4-pyrrolidinylpyrrolo[3,2-d]pyrimidine], the inhibition in vivo at 30 mg/kg with Male BALB-C mice was ≥ 10%. The same measure, in the same setting: the figure for `c1ccc(-c2cc3ncnc(N4CCCCC4)c3[nH]2)cc1` [Example 30, 6-Phenyl-4-piperidylpyrrolo[3,2-d]pyrimidine Hydrochloride] is ≥ 10%. As to `Cc1nc(N2CCCCC2)c2sc(-c3ccccc3)cc2n1` [Example 32, 2-Methyl-6-phenyl-4-piperidylthiopheno[3,2-d]pyrimidine Hydrochloride], the inhibition in vivo at 30 mg/kg in the series with Male BALB-C mice and with Long-Evans male rats was ≥ 10% throughout. On to `Cc1nc(N2CCCCC2)c2sc(-c3ccc(Cl)cc3)cc2n1` [Example 33, 6-(4-Chlorophenyl)-2-methyl-4-piperidylthiopheno[3,2-d]pyrimidine Hydrochloride], for which the inhibition in vivo at 30 mg/kg in the series on Male BALB-C mice and in the series with Long-Evans male rats was ≥ 10% each time.

For the compound `Cc1nc(N2CC=CC2)c2[nH]c(-c3ccccc3)cc2n1` [Example 61, 2-Methyl-6-phenyl-4-(pyrrolinyl)pyrrolo[3,2-d]pyrimidine Hydrochloride Monohydrate], the inhibition in vivo at 30 mg/kg with Male BALB-C mice and with Long-Evans male rats was ≥ 10% throughout. On to `Cc1nc(N2CCCCC2C)c2[nH]c(-c3ccccc3)cc2n1` (stereo not shown) [Example 63, 2-Methyl-6-phenyl-4-(2-methylpiperidinyl)pyrrolo(3,2-d)pyrimidine Hydrochloride Monohydrate], for which the inhibition in vivo at 30 mg/kg with Male BALB-C mice and in the series with Long-Evans male rats was ≥ 10% throughout. In the case of `CCC1CCCCN1c1nc(C)nc2cc(-c3ccccc3)[nH]c12` (stereo not shown) [Example 64, 2-Methyl-6-phenyl-4-(2-ethylpiperidinyl)pyrrolo[3,2-d]pyrimidine Hydrochloride Hydrate], the inhibition in vivo at 30 mg/kg in the series with Male BALB-C mice was ≥ 10%. With `Cc1nc(N2CC=CCC2)c2[nH]c(-c3ccccc3)cc2n1` [Example 65, 2-Methyl-6-phenyl-4-(1,2,3,6-tetrahydropyridinyl)pyrrolo[3,2-d]pyrimidine Hydrochloride], the inhibition in vivo at 30 mg/kg in the series with Male BALB-C mice and in the series with Long-Evans male rats was ≥ 10% throughout. For `CCOC(=O)c1[nH]c(-c2ccc(F)cc2)cc1N` [Example 73a, ethyl 3-amino-5-(4-fluorophenyl)pyrrole-2-carboxylate], in the series with Male BALB-C mice, the inhibition in vivo at 30 mg/kg was ≥ 10%. For `Cc1nc(N2CCCCC2)c2[nH]c(-c3ccccn3)cc2n1` [Example 77, 2-Methyl-4-piperidyl-6-(2-pyridyl)pyrrolo[3,2-d]pyrimidine Hydrochloride Hydrate], in the series with Male BALB-C mice, the inhibition in vivo at 30 mg/kg was ≥ 10%. For `Cc1nc(N2CCCCC2)c2[nH]c(C34C[C@H]5C[C@@H](C3)C[C@@H](C4)C5)cc2n1` [Example 81d, 6-Adamantanyl-2-methyl-4-piperidylpyrrolo[3,2-d]pyrimidine Hydrochloride Monohydrate], the inhibition in vivo at 30 mg/kg in the series on Male BALB-C mice is ≥ 10%. As to `Cc1nc(N2CCCCC2)c2[nH]c(-c3ccc(Cl)cc3)cc2n1.Cl` [Example 92d, 6-(4-Chlorophenyl)-2-methyl-4-piperidylpyrrolo[3,2-d]pyrimidine Hydrochloride], the melting point (usually the temperature, or range, at which the solid turns liquid) is 253.8 to 255.2 °C (dec.). In addition, the inhibition in vivo at 30 mg/kg in the series on Male BALB-C mice was ≥ 10%. Consider `CCCNc1nc(N2CCCCC2)c2[nH]c(-c3ccccc3)cc2n1` [Example 93, (6-Phenyl-4-piperidylpyrrolo[3,2-d]pyrimidine-2-yl)propylamine Hydrochloride], for which the inhibition in vivo at 30 mg/kg in the series on Male BALB-C mice is ≥ 10%. In the case of `CC1=C(c2cc3nc(C)nc(N4CCCCC4)c3[nH]2)CCC1.Cl` [Example 98, 2-Methyl-6-(2-methylcyclopent-1-enyl)-4-piperidylpyrrolo[3,2-d]pyrimidine Hydrochloride], the melting point fell in the range of 224.5 to 226 °C. For the same compound, the inhibition in vivo at 30 mg/kg in the series with Male BALB-C mice is ≥ 10%. As to `Cc1nc(N2CCCCC2)c2[nH]c(-c3cccc(F)c3)cc2n1` [Example 103, 6-(3-Fluorophenyl)-2-methyl-4-piperidylpyrrolo[3,2-d]pyrimidine Hydrochloride Monohydrate], the inhibition in vivo at 30 mg/kg with Male BALB-C mice is ≥ 10%. As for `Cc1nc(N2CCCCC2)c2[nH]c(-c3cccc(C(F)(F)F)c3)cc2n1` [Example 107, 2-Methyl-4-piperidyl-6-[3-(trifluoromethyl)phenyl]pyrrolo[3,2-d]pyrimidine Hydrochloride Monohydrate], the inhibition in vivo at 30 mg/kg in the series on Male BALB-C mice is ≥ 10%. On to `Cc1nc(N2CCCCC2)c2[nH]c(-c3ccc4c(c3)OCO4)cc2n1` [Example 114, 5-[2-Methyl-4-piperidylpyrrolo[4,5-d]pyrimidin-6-yl]-2H-benzo[d]1,3-dioxolane Hydrochloride Monohydrate], for which, in the series on Male BALB-C mice, the inhibition in vivo at 30 mg/kg was ≥ 10%.

With `Cc1nc(N2CCCCC2)c2[nH]c(-c3ccc4c(c3)OCCO4)cc2n1` [Example 125, 6-(2-Methyl-4-piperidylpyrrolo[4,5-d]pyrimidin-6-yl)-2H,3H-benzo[e]1,4-dioxane Hydrochloride Monohydrate], in the series with Male BALB-C mice, the inhibition in vivo at 30 mg/kg was ≥ 10%. Consider `Cc1nc(N2CCCCC2)c2[nH]c(-c3ccc4c(c3)CCC4)cc2n1` [Example 130, 6-Indan-5-yl-2-methyl-4-piperidylpyrrolo[3,2-d]pyrimidine Hydrochloride Monohydrate], for which the inhibition in vivo at 30 mg/kg in the series on Male BALB-C mice is ≥ 10%. For `Cc1nc(N2CCCCC2)c2[nH]c(-c3ccc4c(c3)CCO4)cc2n1` [Example 131, 5-[2-Methyl-4-piperidylpyrrolo[4,5-d]pyrimidin-6-yl]-2,3-dihydrobenzo[b]furan Hydrochloride Hydrate], in the series with Male BALB-C mice, the inhibition in vivo at 30 mg/kg was ≥ 10%. In the case of `COc1cc(-c2cc3nc(C)nc(N4CCCCC4)c3[nH]2)cc(OC)c1OC.Cl` [Example 143, 1,2,3-Trimethoxy-5-[2-methyl-4-piperidylpyrrolo[4,5-d]pyrimidin-6-yl]benzene Hydrochloride], the melting point was 275 to 277 °C. Further, the inhibition in vivo at 30 mg/kg with Long-Evans male rats was ≥ 10%. For the compound `CC(=O)c1ccc(-c2cc3nc(C)nc(N4CCCCC4)c3[nH]2)cc1` [Example 150, 1-[4-(2-Methyl-4-piperidylpyrrolo[4,5-d]pyrimidin-6-yl)phenyl]ethan-1-one Hydrochloride Hydrate], in the series on Long-Evans male rats, the inhibition in vivo at 30 mg/kg is ≥ 10%. Turning to `Cc1nc(N2CCCCC2)c2[nH]c(-c3ccc4ccccc4c3)cc2n1` [Example 160, 2-Methyl-6-(2-naphthyl)-4-piperidylpyrrolo[3,2-d]pyrimidine Hydrochloride Hydrate], in the series with Long-Evans male rats, the inhibition in vivo at 30 mg/kg is ≥ 10%. Still for that read-out and setting: with `Cc1nc(N2CCCCC2)c2[nH]c(CCc3ccccc3)cc2n1` [Example 168, 2-Methyl-6-(2-phenylethyl)-4-piperidylpyrrolo[3,2-d]pyrimidine Hydrochloride Hydrate] the figure was ≥ 10%. As for `Cc1nc(N2CC=CC2)c2[nH]c(-c3ccc(F)cc3)cc2n1` [Example 199, 6-(4-Fluorophenyl)-2-methyl-4-(3-pyrrolinyl)pyrrolo[3,2-d]pyrimidine Hydrochloride Hydrate], the inhibition in vivo at 30 mg/kg in the series with Male BALB-C mice is ≥ 10%. With `Cc1nc(N2CC=CC2)c2[nH]c(-c3ccc(Cl)c(Cl)c3)cc2n1` [Example 200d, 6-(3,4-Dichlorophenyl)-2-methyl-4-(3-pyrrolinyl)pyrrolo[3,2-d]pyrimidine Hydrochloride Hydrate], the inhibition in vivo at 30 mg/kg with Long-Evans male rats was ≥ 10%. `CCc1nc(N2CCc3ccccc3C2)c2[nH]c(-c3ccccc3)cc2n1` [Example 202, 2-Ethyl-6-phenyl-4-(2-1,2,3,4-tetrahydroisoquinolyl)pyrrolo[3,2-d]pyrimidine Hydrochloride Monohydrate]: the inhibition in vivo at 30 mg/kg in the series with Long-Evans male rats is ≥ 10%.

As to `CN(C)c1nc(N2CCCCC2)c2[nH]c(-c3ccccc3)cc2n1` [Example 203, Hydrochloride Hydrate], the inhibition in vivo at 30 mg/kg with Long-Evans male rats is ≥ 10%. Same read-out and setting: with `Fc1ccc(-c2cc3nc(C4CC4)nc(N4CCCCC4)c3[nH]2)cc1` [Example 209c, 2-Cyclopropyl-6-(4-fluorophenyl)-4-piperidylpyrrolo[3,2-d]pyrimidine Hydrochloride Hydrate] the figure was ≥ 10%. With `Cc1nc(N2CCc3ccccc32)c2[nH]c(-c3ccccc3)cc2n1` [Example 215, 4-Indolinyl-2-methyl-6-phenylpyrrolo[3,2-d]pyrimidine Hydrochloride Hydrate], the inhibition in vivo at 30 mg/kg with Male BALB-C mice was ≥ 10%. In the case of `Cc1nc(N2CC=CC2)c2oc(-c3ccccc3)cc2n1` [Example 216c, 2-Methyl-6-phenyl-4-(3-pyrrolinyl)furano[3,2-d]pyrimidine Hydrochloride Hydrate], the inhibition in vivo at 30 mg/kg in the series on Long-Evans male rats was ≥ 10%. Take `Cc1nc(-n2cccn2)c2[nH]c(-c3ccccc3)cc2n1` [Example 218, 2-Methyl-6-phenyl-4-pyrazolypyrrolo[3,2-d]pyrimidine Hydrochloride Hydrate]: the inhibition in vivo at 30 mg/kg in the series on Male BALB-C mice is ≥ 10%.
